Experimental data: patent US10912815B2, “Inhibitors of mitochondrial fission and methods of use thereof” (The Board of Trustees of the Leland Stanford Junior …, priority 2011, dated 2021)
“Also recorded” adds a separate entry of the source. No end group written: not given here.

What was measured:
[1] = biological target: Recombinant protein Drp1 (Homo sapiens, UniProt O00429); test: In vitro GTPase assay, recombinant Drp1; format: biochemical
Description: First, mitochondrial fission inhibitor constructs were tested to determine what, if any, effects each peptide had on enzyme (GTPase) activity. Recombinant protein Drp1, Mfn1, OPA1 or dynamin-1 (25 ng) was incubated with the indicated modulator peptides for 30 min. GTPase activity was assayed in vitro using a GTPase assay kit (Innova Biosciences, Littleton, USA, or Novus Biologicals, Littleton, Colo.) according to manufacturer's instructions.

[2] = system: SH-SY5Y cells; test: Mitochondrial morphology/fragmentation in SH-SY5Y cells (TOM20 staining); format: cell-based, human; details: for percentage of cells with fragmented mitochondria: P110 1 μM 30 min, FIG. 5
Description: To determine effects of P110 on mitochondrial morphology in response to mitochondrial stresses, an immuno-staining approach was used. In one experiment, SH-SY5Y neuronal cells were treated with Drp1 peptides or Drp1 siRNA followed by treatment of MPP+. The cells were then stained with TOM20 and Hoechst stain.
In another experiment, cultured SH-SY5Y cells were treated with P110 (1 μM) for 30 min followed by incubation with MPP+(2 mM, 4 hrs) or CCCP (5 uM, 30 min). The cells were then stained with anti-Tom 20 antibody (green) and Hoechst stain (scale bar 0.5 μm). Mitochondrial morphology was analyzed using 63× oil lens. The data were analyzed and are presented as a histogram in which the percentage of cells with fragmented mitochondria relative to the total number of cells is presented as the mean±S.E. of 3 independent experiments. At least 200 cells per group were counted.

[3] = system: mitochondrial electron transport chain (complexes I-V); test: Mitochondrial complex I-V assembly in SH-SY5Y cells (western blot); format: cell-based, human; details: SH-SY5Y treated with MPP+, FIG. 8
Description: The oxidative phosphorylation system in the mitochondria is responsible for generating ATP and consists of five major membrane protein complexes, the mitochondrial complexes I-V. MPP+ is a specific mitochondrial complex I inhibitor. P110 was tested for potential effects on MPP+-induced defects in mitochondrial complexes. […] The lower panel is a histogram in which the quantitative data generated from the western blot are expressed as mean±S.E. of 3 independent experiments.

[4] = system: isolated mouse liver mitochondria with Drp1 recombinant protein; test: Superoxide production of isolated mouse liver mitochondria after addition of recombinant Drp1; format: biochemical; details: isolated mouse liver mitochondria 50 μg, Drp1 50 ng, P110 1 μM, p<0.05, n=3, FIG. 6C
Description: Mitochondrial membrane potential was also determined using TMRM (tetramethylrhodamine methylester). Fifty μg of mitochondria were incubated with recombinant Drp1 (50 ng) followed by incubation with TMRM (0.5 μM) in the presence or absence of P110 (1 μM) or NAC (2.5 mM). Fluoresence detection was performed using black 96-well plates in a fluorescence microplate reader at 560 nm excitation and 690 nm emission and potential was assessed by quenching of the fluorescent signal. The data are presented as mean±S.E. of percentage relative to control mitochondria from three independent experiments (FIG. 6B, #, p<0.05 vs. control cells; *, p<0.05; **, P<0.01 vs. MPP+- or CCCP-treated cells). Isolated mouse liver mitochondria (50 μg) were incubated with Drp1 recombinant protein (50 ng) in the presence or absence of P110 (1 μM). A kinetic change of mitochondrial superoxide production was determined by using MITOSOX™ (red mitochondrial superoxide indicator). […] Mitochondrial membrane potential of isolated mouse liver mitochondria was determined by TMRM, as described above, in the indicated groups. […] Protein levels of cytochrome c in the mitochondria were determined by western blot analysis with anti-cytochrome c antibodies in the indicated groups (insert, FIG. 6D). Total ROS production was determined by staining SH-SY5Y cells with CM2HDCFA (1 μM […] at 37° C.) in the indicated groups. […]

[5] = system: isolated mouse liver mitochondria with Drp1 recombinant protein; test: Membrane potential of isolated mouse liver mitochondria incubated with Drp1 (TMRM); format: biochemical; details: P110 1 μM, NAC 2.5 mM, FIG. 6D bottom
Description: Mitochondrial membrane potential was also determined using TMRM (tetramethylrhodamine methylester). Fifty μg of mitochondria were incubated with recombinant Drp1 (50 ng) followed by incubation with TMRM (0.5 μM) in the presence or absence of P110 (1 μM) or NAC (2.5 mM). Fluoresence detection was performed using black 96-well plates in a fluorescence microplate reader at 560 nm excitation and 690 nm emission and potential was assessed by quenching of the fluorescent signal. The data are presented as mean±S.E. of percentage relative to control mitochondria from three independent experiments (FIG. 6B, #, p<0.05 vs. control cells; *, p<0.05; **, P<0.01 vs. MPP+- or CCCP-treated cells). Isolated mouse liver mitochondria (50 μg) were incubated with Drp1 recombinant protein (50 ng) in the presence or absence of P110 (1 μM). A kinetic change of mitochondrial superoxide production was determined by using MITOSOX™ (red mitochondrial superoxide indicator). The data are presented as mean±S.E. of percentage relative to the value at basal level from three independent experiments (FIG. 6C, #, p<0.05 vs. control mitochondria; *, p<0.05 vs. mitochondria with the addition of Drp1). Mitochondrial membrane potential of isolated mouse liver mitochondria was determined by TMRM, as described above, in the indicated groups. NAC (2.5 mM) was used as a positive control (FIG. 6D). Protein levels of cytochrome c in the mitochondria were determined by western blot analysis with anti-cytochrome c antibodies in the indicated groups (insert, FIG. 6D). Total ROS production was determined by staining SH-SY5Y cells with CM2HDCFA (1 μM […] at 37° C.) in the indicated groups. The data are presented as mean±S.E. of percentage relative to control group from three independent experiments (FIG. 6E, *, p<0.05 vs. either MPP+ or CCCP treated-group; #, p<0.05 vs. control group).
The mitochondrial membrane potential of isolated mouse liver mitochondria was then measured in the presence or absence of P110.

[6] = system: SH-SY5Y cells; test: Autophagy marker LC3 in SH-SY5Y cells; format: cell-based, human; details: MPP+
Excerpt: Autophagy is another consequence of excessive mitochondrial fission (Twig et al., 2008, EMBO J 27:433-446; Wikstrom et al., 2009, Int J Biochem Cell Biol 41:1914-1927). Autophagy can be measured by the induction of the autophagic marker LC3 (microtubule-associated protein 1, light chain 3, also known as ATG8). Cultured SH-SY5Y cells were stained by anti-LC3 antibodies and nuclei were stained by Hoechsts staining. A histogram (FIG. 9C) depicts the number of LC3-positive punctate/per cell in the indicated groups. The data are presented as the mean±S.E. of three independent experiments. Western blot analysis of LC3 I/II with anti-LC3 antibodies is shown and is presented as a histogram where the data are expressed as mean±S.E. of three independent experiments (FIG. 9D, left panel).

[7] = system: Primary rat dopaminergic neurons; test: Neurite loss of primary dopaminergic neurons exposed to MPP+ (TH staining); format: cell-based; details: P110 1 μM, MPP+ 1 μM, FIG. 10C
Description: Primary rat dopaminergic neurons (cultured for 6 days) were treated without or with P110 (1 μM) followed by treatment with or without MPP+(1 μM). Two hrs following MPP+ treatment, the cells were stained with MITOSOX™ red (to measure mitochondrial superoxide production) and anti-TH antibody (a marker of dopaminergic neurons). Fifteen hrs after MPP+ treatment, cells were stained with anti-TH antibody and anti-Tom20 antibody (a marker of mitochondria).

Chain of Recombinant protein Drp1 (O00429 1-710 isoform O00429-3): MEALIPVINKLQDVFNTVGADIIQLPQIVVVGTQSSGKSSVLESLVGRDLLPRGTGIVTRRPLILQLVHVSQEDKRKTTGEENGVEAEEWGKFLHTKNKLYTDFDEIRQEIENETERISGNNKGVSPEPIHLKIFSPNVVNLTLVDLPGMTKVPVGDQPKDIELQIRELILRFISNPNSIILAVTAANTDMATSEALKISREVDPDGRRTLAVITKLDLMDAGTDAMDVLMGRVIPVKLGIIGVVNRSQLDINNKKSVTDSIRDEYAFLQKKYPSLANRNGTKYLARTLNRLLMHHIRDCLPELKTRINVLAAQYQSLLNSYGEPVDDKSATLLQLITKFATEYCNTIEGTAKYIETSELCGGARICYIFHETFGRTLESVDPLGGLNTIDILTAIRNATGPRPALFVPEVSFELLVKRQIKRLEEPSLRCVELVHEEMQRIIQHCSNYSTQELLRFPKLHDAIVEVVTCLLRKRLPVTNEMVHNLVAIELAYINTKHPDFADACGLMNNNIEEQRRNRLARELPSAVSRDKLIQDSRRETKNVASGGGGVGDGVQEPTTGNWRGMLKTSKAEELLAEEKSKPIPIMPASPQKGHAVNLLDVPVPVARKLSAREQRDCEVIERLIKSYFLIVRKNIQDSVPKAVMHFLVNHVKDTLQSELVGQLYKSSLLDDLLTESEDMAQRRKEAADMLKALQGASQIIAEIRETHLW

RRRQRRKKRGYGGDLLPRGS (RRRQRRKKRGYGGDLLPRGS-NH2) [P110, TAT47-57 carrier, GG linker, Drp1 region 110 (GTPase domain) peptide DLLPRGS; C-terminus C(O)-NH2]
specifically inhibited Drp1 GTPase activity ([1]; in vitro GTPase assay, n=3, first statement of b271): 30% | inhibition in the GTPase activity of recombinant Drp1 ([1]; recombinant Drp1 25 ng, 30 min incubation with peptide, FIG. 2A): 50% | percentage of cells with fragmented mitochondria ([2]; then CCCP 5 uM 30 min, 63% without P110): 23% | percentage of cells with fragmented mitochondria ([2]; then MPP+ 2 mM 4 hrs, 50% without P110): 14% | reduction of mitochondrial fragmentation in cells exposed to MPP+ ([2]; SH-SY5Y, MPP+, p<0.01, n=3, FIG. 4A, 4B): 70% | mitochondrial morphology/network in control (non-stressed) cells ([2]; SH-SY5Y, no stressor): minimal effects; also recorded: no effect; also recorded: did not observe dramatic difference | MPP+-induced reduction of NDUFB8 (complex I) and MTCOI (complex IV) [3]: abolished the reduction of these two proteins | assembly of the mitochondrial electron transport chain (ETC) [3]: improved the assembly | Drp1-induced ROS (superoxide) elevation in the mitochondria [4]: abolished | mitochondrial membrane potential (MMP) of isolated mitochondria after Drp1 addition [5]: improved the MMP | number of LC3-positive puncti in the cells ([6]; FIG. 9C): reduced | LC3 cleavage (LC3 I to LC3 II) ([6]; FIG. 9D): reduced | neurite loss of dopaminergic neurons (TH) [7]: reduced neurite loss
